“Also recorded” adds a separate entry of the source. Structures can show the parent of a compound that is named as a salt.
Key:
[1] = test system: pancreatic cancer cells (PANC-1); assay: MultiTox-Fluor cytotoxicity assay in PANC-1 cells; format: cell-based, human; settings: PANC-1, 24-72 h
Description: Cell lines (HCT116, ht29, Rko, Hep3B, SW48, SW620, MDA-MB-231, PANC-1, su.86.86, Hfb) were obtained from the American Type Culture Collection (ATCC). Cell type authentication was carried out by microscope and DNA profiles using short tandem repeat analysis. Cells were grown in Minimum Essential Medium (MEM) containing 10% heat-inactivated Fetal Bovine Serum (FBS) or in Dulbecco's Modified Eagle's Medium (DMEM) containing 10% FBS, where specified, at 37° C. with 5% CO2. In general, the in-vitro experiments were carried out with 2. μM 0260 added into the growth medium. Dose response experiments included increasing 0260 concentrations. Cell death levels were determined using the MultiTox-Fluor Multiplex Cytotoxicity Assay (G9201, Promega, USA). In brief, 10,000 cells were seeded in black bottom 96 wells plate and were allowed to attach to the plate bottom for 16 h before the administration of various 0260 concentration in each well. Cell death levels were determined according to the manufacturer's protocol.
Cells death level was determined using the MultiTox-Fluor Multiplex Cytotoxicity Assay (G9201, Promega, USA) according to the manufacturer's protocol.

CC cells [2] = assay: Mitochondrial membrane potential (TMRE) in CC cells; format: cell-based, human; settings: malignant cells
Description: (§1) For microscopic and ELISA based analyses of cells MMP, Tetra-Methyl-Rhodamine-Ethyl ester (TMRE) incorporation assay was carried out according to the manufacturer's instructions (Abcam, USA).

Hfb [3] = assay: Mitochondrial membrane potential (TMRE) in normal human cells; format: cell-based
Description: as §1

Hfb [4] = assay: Cellular ATP level (HPLC) in Hfb; format: cell-based, human; settings: 12 hours
Description: Quantification of intracellular ATP was carried out using HPLC as previously described.
Cells were suspended in 400 μl cold 0.4M perchloric acid solution, incubated on ice for 15 min, centrifuged at 12,000×g, neutralized with 4M K2CO3 to pH 7.5, incubated for 15 min on ice and concentrated (10,000×g). Chromatographic analyses were performed using Hitachi Elite LaChrom system at 30° C. applying supernatants to SUPELCOSIL™ LC-18-S HPLC Column (5 μm particle size, L×I.D. 25 cm×2.1 mm), flow rate 0.2 mL/min under isocratic elution conditions (50 mM potassium phosphate, 100 mM triethylamine, pH 6.5 (adjusted with phosphoric acid)):Acetonitrile (98.5:1.5)). Each analysis cycle was set to 30 min, chromatographic flow was monitored at 260 nm and integrated using EZChrom Elite Software.

MDA cells = assay: Autophagy in MDA cells (LC3 immuno-staining); format: cell-based, human; settings: 2 μM
Description: Cells were fixed with 4% paraformaldehyde (30 min) and incubated with Permeabilization Solution containing 0.1% Triton X-100 (Sigma-Aldrich, Israel) in PBS at room temperature for 1 h. Nonspecific binding was blocked with PBS containing 10% fetal bovine serum for 1 h at room temperature. Cells were incubated with specific antibodies diluted 1:100 overnight at 4° C. Cells were washed (5 min) in PBS containing 0.2% Tween-20 (Sigma-Aldrich, Israel) to remove non-specific binding. Bound primary antibodies were detected by Alexa Fluor® 488 goat anti-mouse IgG antibody or Alexa Fluor® 594 goat anti-rabbit IgG antibody (Molecular Probes, Invitrogen, U.K.). Nuclei were visualized by incubation with Hoechst 33342 solution for 10 min (1:500). Nonspecific staining, as determined by binding to the secondary antibody only, was negligible. The immunostained slides were examined under the fluorescence microscope AxioimagerZ1 (Zeiss, Germany) or confocal fluorescence microscope (Olympus-FV1000).

PARP-1 = PARP-1 poly-ADP-ribosylation activity in CC cells (WB); format: cell-based, human; settings: CC cells
Description: WB analyses were carried out as previously described before. In brief, cells were lysed in RIPA buffer mixed with protease inhibitors and separated on SDS-PAGE gel, transferred to PVDF membrane treated with 5% skim milk to exclude non-specific background and incubated with a primary antibody over-night. The membrane was incubated for 1 h with a secondary antibody conjugated to Horseradish Peroxidase (HRP). The protein-antibody complex was visualized using the SuperSignal West Pico Chemiluminescent Substrate (Thermo scientific, USA).

SW620 cells = assay: TUNEL assay in SW620 cells; format: cell-based, human; settings: 12 h
Description: Samples of 1×10^6 cells were inoculated into a 6 well plate containing a cover slip, and fixed for 30 min with 4% paraformaldehyde following adhesion. The cells were then subjected to TUNEL analysis according to manufacturer's instructions (Roche, USA).

CC cells [5] = assay: Glycolysis rate (secreted lactate) in CC cells; format: cell-based, human; settings: 12 h
Description: Cells were grown in MEM containing 1 gr/lit glucose or in DMEM with 4.5 gr/lit glucose. Secreted lactate levels were determined using Lactate Colorimetric Assay Kit II according to the manufacturer's protocol (Biovision, USA).

[6] = target: CAMK1 (Calcium/calmodulin-dependent protein kinase type 1) (Homo sapiens, UniProt Q14012); assay: Kinase panel assay, CAMK1; format: biochemical; settings: above threshold
Sequence of CAMK1 (Calcium/calmodulin-dependent protein kinase type 1) (Q14012 whole entry): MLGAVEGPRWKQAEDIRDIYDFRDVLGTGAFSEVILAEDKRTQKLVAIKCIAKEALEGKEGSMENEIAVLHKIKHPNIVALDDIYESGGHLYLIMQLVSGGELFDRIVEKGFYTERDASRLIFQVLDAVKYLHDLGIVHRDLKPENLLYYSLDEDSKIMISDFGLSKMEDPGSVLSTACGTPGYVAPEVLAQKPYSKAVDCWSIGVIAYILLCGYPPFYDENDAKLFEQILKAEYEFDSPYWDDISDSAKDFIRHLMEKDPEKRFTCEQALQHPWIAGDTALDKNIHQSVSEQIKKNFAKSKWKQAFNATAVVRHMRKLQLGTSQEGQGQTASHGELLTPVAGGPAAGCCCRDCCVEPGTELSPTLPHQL
Description: (§2) Kinase panel assays were performed using the FRET-based Z′-LYTE, Lantha Screen and Adapta enzymatic kinase assay systems (Life Technologies, Carlsbad, Calif.), which were carried out using the SelectScreen Kinase Profiling Service (Life Technologies). The standard reaction contained 2 μM peptide substrate, ATP at the optimal assay concentration, 50 mM HEPES (pH 7.5), 0.01% Brij-35, 10 mM MgCl2, 1 mM EGTA, and the tested kinase. Each kinase was checked for its activity in duplicate data points (n=2) and was assayed following the detailed procedures outlined in the SelectScreen service. Percent inhibition or ATP displacement (For Lantha screen) represent a ratio of phosphorylated/ATP bound product formed in the presence of the compound compared with phosphorylated/ATP bound product formed in reactions containing 1% DMSO.
(§3) Kinome technique was used for monitoring phosphorylation events and phosphorylation targets of 0260-Fer interaction, using peptide arrays for human targets and phosphorylation-specific antibodies. Construction of peptide arrays relied on information from phosphorylation databases. The following proteins were determined as significant above the threshold of 40% kinase activity inhibition or ATP displacement to the Kinase domain site.

[7] = target: DAPK1 (Death-associated protein kinase 1) (Homo sapiens, UniProt P53355); assay: Kinase panel assay, DAPK1; format: biochemical; settings: above threshold
Sequence of DAPK1 (Death-associated protein kinase 1) (P53355 whole entry): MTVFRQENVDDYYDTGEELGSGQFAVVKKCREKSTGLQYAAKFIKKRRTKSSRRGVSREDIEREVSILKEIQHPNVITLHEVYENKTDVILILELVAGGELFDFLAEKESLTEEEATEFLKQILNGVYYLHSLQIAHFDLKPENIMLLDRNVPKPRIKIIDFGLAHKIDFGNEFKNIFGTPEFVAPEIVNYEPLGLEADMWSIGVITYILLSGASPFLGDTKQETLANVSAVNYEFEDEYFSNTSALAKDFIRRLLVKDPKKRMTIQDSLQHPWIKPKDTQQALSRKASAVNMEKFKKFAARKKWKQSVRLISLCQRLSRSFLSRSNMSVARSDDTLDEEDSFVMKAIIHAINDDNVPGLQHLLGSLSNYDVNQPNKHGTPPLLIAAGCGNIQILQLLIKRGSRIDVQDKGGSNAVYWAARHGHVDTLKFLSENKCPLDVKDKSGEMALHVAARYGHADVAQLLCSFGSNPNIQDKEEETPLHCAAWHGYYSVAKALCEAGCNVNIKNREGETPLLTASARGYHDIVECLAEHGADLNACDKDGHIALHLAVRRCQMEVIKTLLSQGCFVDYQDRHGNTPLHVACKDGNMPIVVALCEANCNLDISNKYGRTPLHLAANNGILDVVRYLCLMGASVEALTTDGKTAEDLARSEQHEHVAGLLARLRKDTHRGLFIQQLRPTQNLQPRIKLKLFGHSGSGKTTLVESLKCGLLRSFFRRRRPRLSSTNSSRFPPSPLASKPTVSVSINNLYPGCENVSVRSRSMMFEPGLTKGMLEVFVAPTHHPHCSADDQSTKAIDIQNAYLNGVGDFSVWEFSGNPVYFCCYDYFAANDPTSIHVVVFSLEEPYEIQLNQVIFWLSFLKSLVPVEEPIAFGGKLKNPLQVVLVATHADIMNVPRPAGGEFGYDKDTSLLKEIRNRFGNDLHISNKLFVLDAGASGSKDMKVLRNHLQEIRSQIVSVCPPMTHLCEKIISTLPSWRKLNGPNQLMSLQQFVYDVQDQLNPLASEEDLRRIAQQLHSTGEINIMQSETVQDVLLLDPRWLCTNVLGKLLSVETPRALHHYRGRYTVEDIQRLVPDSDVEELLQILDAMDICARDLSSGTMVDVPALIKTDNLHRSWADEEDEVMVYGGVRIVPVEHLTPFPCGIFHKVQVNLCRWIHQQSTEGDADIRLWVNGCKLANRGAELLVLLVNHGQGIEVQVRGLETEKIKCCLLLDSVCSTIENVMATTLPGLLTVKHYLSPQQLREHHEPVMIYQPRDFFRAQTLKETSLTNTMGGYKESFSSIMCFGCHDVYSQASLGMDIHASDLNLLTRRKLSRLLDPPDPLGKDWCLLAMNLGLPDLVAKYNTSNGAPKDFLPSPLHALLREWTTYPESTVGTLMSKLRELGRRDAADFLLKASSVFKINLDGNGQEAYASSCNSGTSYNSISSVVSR
Description: as §2, §3

[8] = target: CSF1R (Colony stimulating factor 1 receptor-FMS) (Homo sapiens, UniProt P07333); assay: Kinase panel assay, CSF1R; format: biochemical; settings: above threshold
Sequence of CSF1R (Colony stimulating factor 1 receptor-FMS) (P07333 20-972): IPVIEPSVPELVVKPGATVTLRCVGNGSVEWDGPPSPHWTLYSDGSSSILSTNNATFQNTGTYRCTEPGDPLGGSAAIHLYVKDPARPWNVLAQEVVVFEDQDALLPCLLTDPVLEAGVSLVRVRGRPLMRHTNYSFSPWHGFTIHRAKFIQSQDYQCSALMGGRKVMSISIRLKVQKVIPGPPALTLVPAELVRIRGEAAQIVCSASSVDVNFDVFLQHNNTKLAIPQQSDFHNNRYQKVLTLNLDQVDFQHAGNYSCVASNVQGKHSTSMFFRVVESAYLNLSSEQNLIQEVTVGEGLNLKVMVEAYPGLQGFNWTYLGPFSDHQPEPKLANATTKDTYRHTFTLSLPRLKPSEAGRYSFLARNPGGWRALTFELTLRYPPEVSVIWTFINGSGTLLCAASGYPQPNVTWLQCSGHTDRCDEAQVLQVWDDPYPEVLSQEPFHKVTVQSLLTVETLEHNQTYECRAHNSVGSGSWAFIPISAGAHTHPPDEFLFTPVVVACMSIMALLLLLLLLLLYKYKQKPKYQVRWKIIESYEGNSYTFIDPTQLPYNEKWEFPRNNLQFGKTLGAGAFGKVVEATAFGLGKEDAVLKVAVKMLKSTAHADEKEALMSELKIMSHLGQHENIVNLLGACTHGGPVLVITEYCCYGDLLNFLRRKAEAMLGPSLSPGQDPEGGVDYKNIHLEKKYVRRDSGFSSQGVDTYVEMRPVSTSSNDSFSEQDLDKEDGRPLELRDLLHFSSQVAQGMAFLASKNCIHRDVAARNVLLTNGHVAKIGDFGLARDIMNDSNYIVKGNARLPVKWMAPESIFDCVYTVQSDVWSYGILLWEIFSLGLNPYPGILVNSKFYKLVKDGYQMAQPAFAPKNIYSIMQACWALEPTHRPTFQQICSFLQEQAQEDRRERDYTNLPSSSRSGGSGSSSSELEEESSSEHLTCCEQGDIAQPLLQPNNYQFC
Description: as §2, §3

[9] = target: FLT3 (FMS-like tyrosine kinase 3) (Homo sapiens, UniProt P36888); assay: Kinase panel assay, FLT3; format: biochemical; settings: above threshold
Sequence of FLT3 (FMS-like tyrosine kinase 3) (P36888 27-993): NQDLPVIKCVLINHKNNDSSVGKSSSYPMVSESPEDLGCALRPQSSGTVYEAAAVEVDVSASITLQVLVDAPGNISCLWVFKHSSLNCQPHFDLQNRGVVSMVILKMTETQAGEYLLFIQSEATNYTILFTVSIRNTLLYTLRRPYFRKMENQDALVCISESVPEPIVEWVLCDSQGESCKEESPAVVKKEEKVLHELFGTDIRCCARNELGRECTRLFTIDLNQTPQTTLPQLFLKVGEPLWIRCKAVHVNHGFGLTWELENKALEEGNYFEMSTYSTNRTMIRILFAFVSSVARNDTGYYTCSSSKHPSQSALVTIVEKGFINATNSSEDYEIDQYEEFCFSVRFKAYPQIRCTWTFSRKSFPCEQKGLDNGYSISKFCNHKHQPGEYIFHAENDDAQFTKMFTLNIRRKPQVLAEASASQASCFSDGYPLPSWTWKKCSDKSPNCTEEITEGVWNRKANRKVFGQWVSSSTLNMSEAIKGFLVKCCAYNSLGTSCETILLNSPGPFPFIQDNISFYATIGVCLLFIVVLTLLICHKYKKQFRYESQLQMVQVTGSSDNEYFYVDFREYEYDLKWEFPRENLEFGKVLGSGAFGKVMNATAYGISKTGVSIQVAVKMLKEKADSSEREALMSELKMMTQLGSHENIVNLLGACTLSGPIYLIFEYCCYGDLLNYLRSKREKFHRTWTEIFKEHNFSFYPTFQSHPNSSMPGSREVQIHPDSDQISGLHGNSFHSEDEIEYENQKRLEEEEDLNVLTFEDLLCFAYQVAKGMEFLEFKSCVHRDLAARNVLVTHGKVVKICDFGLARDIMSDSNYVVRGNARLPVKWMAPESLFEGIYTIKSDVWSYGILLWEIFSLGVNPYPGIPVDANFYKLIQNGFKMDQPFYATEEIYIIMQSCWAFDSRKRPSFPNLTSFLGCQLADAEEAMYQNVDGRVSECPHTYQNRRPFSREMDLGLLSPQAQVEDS
Description: as §2, §3

## CC(C)c1ccc(-c2cn3nc(N4CCC(CN5CCN(C)CC5)CC4)sc3n2)cc1 [compound 0260, tartarate salt of 6-(4-isopropyl-phenyl)-2-{4-[(4-methyl-piperazin-1-yl)methyl]piperidin-1-yl}-imidazo [2,1-b][1,3,4]thiadiazole]
[1]
  concentration efficient in inducing cell death: ≤ 1.5 µM
CC cells [2]
  Mitochondrial Membrane Potential (MMP): depolarization
Hfb [3]
  Mitochondrial Membrane Potential (MMP) depolarization: absent
Hfb [4]
  effect on cellular ATP level: not seen
MDA cells
  autophagy (LC3 immuno-staining): induction of autophagy was also observed
PARP-1
  poly-ADPr / PARP-1 poly-ADP-ribosylation activity: induction of poly-ADPr; also recorded: significant increase
SW620 cells
  DNA integrity (TUNEL): did not reveal any effect
CC cells [5]; high glucose concentration
  additional acceleration of glycolytic rate: 30%
CC cells [5]; high glucose concentration, total
  elevation in the glycolytic rate: 65%
CC cells [5]; low glucose
  acceleration of glycolytic rate: 35%
[6]
  kinase activity inhibition or ATP displacement: > 40%
[7]
  kinase activity inhibition or ATP displacement: > 40%
[8]
  kinase activity inhibition or ATP displacement: > 40%
[9]
  kinase activity inhibition or ATP displacement: > 40%

Reference: US20180071280A1, “MODULATORS OF CELL DEATH PROCESSES” (URIFER LTD., priority 2015, published 2018)
